{
  "source": "paper PMC8800111",
  "about": "(The Journal of Biological Chemistry, 2021)",
  "format_in_all_cases": "cell-based",
  "key": {"[1]": {"biological_target": "proteins of U3A human fibrosarcoma cells (4462 proteins detected) (Homo sapiens, UniProt Q9Y478)", "sequence (Q9Y478 whole entry)": "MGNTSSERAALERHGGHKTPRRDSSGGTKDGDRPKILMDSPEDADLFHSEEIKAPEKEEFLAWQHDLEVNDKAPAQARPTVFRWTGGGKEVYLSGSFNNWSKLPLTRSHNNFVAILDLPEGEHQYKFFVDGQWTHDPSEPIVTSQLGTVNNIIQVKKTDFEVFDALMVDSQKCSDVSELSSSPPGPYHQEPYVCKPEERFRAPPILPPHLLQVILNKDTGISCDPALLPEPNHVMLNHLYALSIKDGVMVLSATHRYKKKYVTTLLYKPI", "conditions": "protein PRKAB1; U3A cells"}, "[2]": {"biological_target": "proteins of U3A human fibrosarcoma cells (4462 proteins detected) (Homo sapiens, UniProt O95372)", "conditions": "protein LYPLA2; soluble abundance after heat, U3A cells"}, "[3]": {"biological_target": "proteins of U3A human fibrosarcoma cells (4462 proteins detected) (Homo sapiens, UniProt P32320)", "conditions": "protein CDA, U3A cells"}, "[4]": {"biological_target": "proteins of U3A human fibrosarcoma cells (4462 proteins detected) (Homo sapiens, UniProt P21283)", "sequence (P21283 whole entry)": "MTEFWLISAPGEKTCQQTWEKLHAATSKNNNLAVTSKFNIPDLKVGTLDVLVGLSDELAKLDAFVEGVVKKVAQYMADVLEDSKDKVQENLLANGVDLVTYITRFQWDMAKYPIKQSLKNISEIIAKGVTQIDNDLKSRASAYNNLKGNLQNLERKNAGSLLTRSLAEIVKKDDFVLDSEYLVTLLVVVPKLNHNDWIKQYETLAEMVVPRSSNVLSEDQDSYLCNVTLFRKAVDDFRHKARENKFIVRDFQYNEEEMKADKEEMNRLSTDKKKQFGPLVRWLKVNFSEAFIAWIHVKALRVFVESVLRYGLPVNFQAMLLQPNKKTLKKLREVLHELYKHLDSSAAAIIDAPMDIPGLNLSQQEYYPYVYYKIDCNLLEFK", "conditions": "protein ATP6V1C1; soluble abundance after heat, U3A cells"}, "[5]": {"biological_target": "proteins of U3A human fibrosarcoma cells (4462 proteins detected) (Homo sapiens, UniProt Q9UPN9)", "conditions": "protein TRIM33; U3A cells"}, "[6]": {"biological_target": "proteins of U3A human fibrosarcoma cells (4462 proteins detected) (Homo sapiens, UniProt P49588)", "sequence (P49588 whole entry)": "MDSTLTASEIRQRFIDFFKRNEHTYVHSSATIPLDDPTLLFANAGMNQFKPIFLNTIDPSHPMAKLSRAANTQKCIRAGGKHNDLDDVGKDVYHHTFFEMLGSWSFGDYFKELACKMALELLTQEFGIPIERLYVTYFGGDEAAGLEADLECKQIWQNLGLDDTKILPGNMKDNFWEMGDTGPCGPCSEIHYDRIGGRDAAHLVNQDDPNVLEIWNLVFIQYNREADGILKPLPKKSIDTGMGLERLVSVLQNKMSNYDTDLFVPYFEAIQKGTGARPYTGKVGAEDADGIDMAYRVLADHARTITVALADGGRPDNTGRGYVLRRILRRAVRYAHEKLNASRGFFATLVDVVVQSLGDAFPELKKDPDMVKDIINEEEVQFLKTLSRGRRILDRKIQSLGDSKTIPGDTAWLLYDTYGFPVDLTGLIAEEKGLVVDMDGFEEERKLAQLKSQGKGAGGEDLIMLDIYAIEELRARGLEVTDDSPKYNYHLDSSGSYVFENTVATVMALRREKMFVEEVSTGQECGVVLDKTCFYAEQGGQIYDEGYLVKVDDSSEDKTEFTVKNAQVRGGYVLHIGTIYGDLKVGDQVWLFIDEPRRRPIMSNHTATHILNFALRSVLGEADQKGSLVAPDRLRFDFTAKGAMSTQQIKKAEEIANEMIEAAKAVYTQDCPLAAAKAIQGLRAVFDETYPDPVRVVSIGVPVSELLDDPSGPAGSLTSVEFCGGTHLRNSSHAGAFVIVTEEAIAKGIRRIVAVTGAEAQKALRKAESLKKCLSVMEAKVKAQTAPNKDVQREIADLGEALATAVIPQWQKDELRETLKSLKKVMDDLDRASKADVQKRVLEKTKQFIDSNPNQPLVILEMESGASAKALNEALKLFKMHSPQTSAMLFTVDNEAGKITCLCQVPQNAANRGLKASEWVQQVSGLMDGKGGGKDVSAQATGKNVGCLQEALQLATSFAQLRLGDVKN", "conditions": "protein AARS, U3A cells"}, "[7]": {"biological_target": "proteins of U3A human fibrosarcoma cells (4462 proteins detected) (Homo sapiens, UniProt Q8NFH4)", "conditions": "protein NUP37, U3A cells"}, "[8]": {"biological_target": "proteins of U3A human fibrosarcoma cells (4462 proteins detected) (Homo sapiens, UniProt O75347)", "conditions": "protein TBCA, U3A cells"}, "[9]": {"biological_target": "proteins of U3A human fibrosarcoma cells (4462 proteins detected) (Homo sapiens, UniProt Q9NTX5)", "conditions": "protein ECHDC1; U3A cells"}, "[10]": {"biological_target": "proteins of U3A human fibrosarcoma cells (4462 proteins detected) (Homo sapiens, UniProt Q9Y385)", "conditions": "protein UBE2J1; U3A cells"}, "[11]": {"biological_target": "proteins of U3A human fibrosarcoma cells (4462 proteins detected) (Homo sapiens, UniProt Q8NBJ4)", "sequence (Q8NBJ4 whole entry)": "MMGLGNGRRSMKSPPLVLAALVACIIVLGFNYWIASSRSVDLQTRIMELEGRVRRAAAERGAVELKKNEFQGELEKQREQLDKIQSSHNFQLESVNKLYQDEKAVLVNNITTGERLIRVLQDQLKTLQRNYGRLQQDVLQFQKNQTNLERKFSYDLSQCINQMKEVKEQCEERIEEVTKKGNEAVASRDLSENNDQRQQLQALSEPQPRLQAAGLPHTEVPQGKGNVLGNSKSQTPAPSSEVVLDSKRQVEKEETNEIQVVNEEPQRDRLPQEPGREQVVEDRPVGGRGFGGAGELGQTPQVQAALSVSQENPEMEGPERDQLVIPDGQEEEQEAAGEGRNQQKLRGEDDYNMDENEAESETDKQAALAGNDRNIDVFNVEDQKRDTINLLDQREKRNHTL", "conditions": "protein GOLM1; U3A, 10 μM, 2 h"}, "[12]": {"biological_target": "proteins of U3A human fibrosarcoma cells (4462 proteins detected) (Homo sapiens, UniProt Q99848)", "conditions": "protein EBNA1BP2; U3A cells"}, "[13]": {"biological_target": "proteins of U3A human fibrosarcoma cells (4462 proteins detected) (Homo sapiens, UniProt Q96DH6)", "conditions": "protein MSI2; U3A, 10 μM, 2 h"}, "[14]": {"biological_target": "proteins of U3A human fibrosarcoma cells (4462 proteins detected) (Homo sapiens, UniProt P25440)", "conditions": "protein BRD2; soluble abundance after heat, U3A cells"}, "[15]": {"biological_target": "proteins of U3A human fibrosarcoma cells (4462 proteins detected) (Homo sapiens, UniProt Q9BYN8)", "conditions": "protein MRPS26; soluble abundance after heat, U3A cells"}, "[16]": {"biological_target": "proteins of U3A human fibrosarcoma cells (4462 proteins detected) (Homo sapiens, UniProt P15586)", "conditions": "protein GNS, U3A cells"}, "[17]": {"biological_target": "proteins of U3A human fibrosarcoma cells (4462 proteins detected) (Homo sapiens, UniProt Q8TBZ3)", "conditions": "protein WDR20, U3A cells"}, "[18]": {"biological_target": "proteins of U3A human fibrosarcoma cells (4462 proteins detected) (Homo sapiens, UniProt P63146)", "conditions": "protein UBE2B, U3A cells"}, "[19]": {"biological_target": "proteins of U3A human fibrosarcoma cells (4462 proteins detected) (Homo sapiens, UniProt P61088)", "conditions": "protein UBE2N; UBE2NL; U3A cells"}, "[20]": {"biological_target": "proteins of U3A human fibrosarcoma cells (4462 proteins detected) (Homo sapiens, UniProt P00519)", "conditions": "protein ABL1; U3A cells"}, "[21]": {"biological_target": "proteins of U3A human fibrosarcoma cells (4462 proteins detected) (Homo sapiens, UniProt Q14353)", "conditions": "protein GAMT; U3A, 10 μM, 2 h"}, "[22]": {"biological_target": "proteins of U3A human fibrosarcoma cells (4462 proteins detected) (Homo sapiens, UniProt O00330)", "sequence (O00330 54-501)": "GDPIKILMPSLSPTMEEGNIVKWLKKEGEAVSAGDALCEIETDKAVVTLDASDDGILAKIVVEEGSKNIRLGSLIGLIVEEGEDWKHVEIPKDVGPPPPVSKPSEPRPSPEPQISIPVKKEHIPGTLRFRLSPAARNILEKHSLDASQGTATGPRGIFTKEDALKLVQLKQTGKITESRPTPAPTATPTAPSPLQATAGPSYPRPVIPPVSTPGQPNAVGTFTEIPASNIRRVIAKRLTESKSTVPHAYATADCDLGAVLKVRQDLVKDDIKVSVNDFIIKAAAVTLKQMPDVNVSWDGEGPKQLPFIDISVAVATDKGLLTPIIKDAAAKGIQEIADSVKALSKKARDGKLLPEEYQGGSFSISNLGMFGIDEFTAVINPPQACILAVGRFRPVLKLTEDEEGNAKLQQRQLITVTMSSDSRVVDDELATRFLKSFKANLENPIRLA", "conditions": "protein PDHX; U3A cells"}, "[23]": {"biological_target": "proteins of U3A human fibrosarcoma cells (4462 proteins detected) (Homo sapiens, UniProt Q9NVR2)", "conditions": "protein INTS10; U3A cells"}, "[24]": {"biological_target": "proteins of U3A human fibrosarcoma cells (4462 proteins detected) (Homo sapiens, UniProt Q9Y6D5)", "sequence (Q9Y6D5 whole entry)": "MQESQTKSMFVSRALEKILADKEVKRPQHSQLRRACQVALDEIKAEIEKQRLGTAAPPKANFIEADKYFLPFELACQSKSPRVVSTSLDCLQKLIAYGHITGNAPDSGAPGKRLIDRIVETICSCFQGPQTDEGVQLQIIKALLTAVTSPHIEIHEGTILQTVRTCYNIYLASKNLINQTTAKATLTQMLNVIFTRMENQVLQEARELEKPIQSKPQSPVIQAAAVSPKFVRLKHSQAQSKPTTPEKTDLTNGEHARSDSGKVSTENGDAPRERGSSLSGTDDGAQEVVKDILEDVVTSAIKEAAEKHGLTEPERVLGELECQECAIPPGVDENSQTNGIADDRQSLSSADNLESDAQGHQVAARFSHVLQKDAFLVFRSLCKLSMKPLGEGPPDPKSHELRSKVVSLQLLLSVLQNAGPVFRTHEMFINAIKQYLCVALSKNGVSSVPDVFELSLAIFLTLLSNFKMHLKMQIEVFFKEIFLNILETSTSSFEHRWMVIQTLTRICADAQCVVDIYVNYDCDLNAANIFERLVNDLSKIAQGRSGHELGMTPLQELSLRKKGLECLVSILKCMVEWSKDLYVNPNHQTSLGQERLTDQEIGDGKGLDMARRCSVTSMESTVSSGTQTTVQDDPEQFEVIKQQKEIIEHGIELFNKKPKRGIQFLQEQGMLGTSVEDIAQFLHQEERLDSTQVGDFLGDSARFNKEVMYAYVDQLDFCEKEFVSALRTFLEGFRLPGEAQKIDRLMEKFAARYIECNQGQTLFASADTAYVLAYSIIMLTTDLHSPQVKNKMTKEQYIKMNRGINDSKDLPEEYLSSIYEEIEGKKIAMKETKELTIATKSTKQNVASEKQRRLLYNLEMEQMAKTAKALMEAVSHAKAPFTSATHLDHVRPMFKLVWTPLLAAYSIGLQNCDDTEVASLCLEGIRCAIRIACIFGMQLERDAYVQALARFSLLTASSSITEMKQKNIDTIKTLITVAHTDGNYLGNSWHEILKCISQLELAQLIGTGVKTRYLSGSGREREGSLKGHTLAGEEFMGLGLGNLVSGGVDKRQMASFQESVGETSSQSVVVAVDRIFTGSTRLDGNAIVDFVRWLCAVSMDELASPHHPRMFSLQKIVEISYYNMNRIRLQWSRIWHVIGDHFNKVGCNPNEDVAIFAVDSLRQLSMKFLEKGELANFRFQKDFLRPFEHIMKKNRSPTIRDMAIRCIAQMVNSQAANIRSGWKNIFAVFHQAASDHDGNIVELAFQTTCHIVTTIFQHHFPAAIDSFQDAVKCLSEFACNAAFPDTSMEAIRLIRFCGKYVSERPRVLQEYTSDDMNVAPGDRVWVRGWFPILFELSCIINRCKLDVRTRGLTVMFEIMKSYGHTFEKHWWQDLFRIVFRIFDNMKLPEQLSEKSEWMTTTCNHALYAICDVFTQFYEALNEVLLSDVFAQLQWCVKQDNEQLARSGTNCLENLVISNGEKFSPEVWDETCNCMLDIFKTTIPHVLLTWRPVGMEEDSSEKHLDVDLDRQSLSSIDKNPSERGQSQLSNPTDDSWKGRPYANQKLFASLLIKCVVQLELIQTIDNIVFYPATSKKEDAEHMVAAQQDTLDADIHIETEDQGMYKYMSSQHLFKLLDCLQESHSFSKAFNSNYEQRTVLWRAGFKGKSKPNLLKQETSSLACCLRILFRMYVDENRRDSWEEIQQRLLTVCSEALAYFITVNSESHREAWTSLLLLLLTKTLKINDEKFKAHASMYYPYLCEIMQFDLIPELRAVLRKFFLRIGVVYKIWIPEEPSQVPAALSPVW", "conditions": "protein ARFGEF2; U3A cells"}, "[25]": {"biological_target": "proteins of U3A human fibrosarcoma cells (4462 proteins detected) (Homo sapiens, UniProt P41214)", "conditions": "protein EIF2D; U3A cells"}, "[26]": {"biological_target": "proteins of U3A human fibrosarcoma cells (4462 proteins detected) (Homo sapiens, UniProt Q8WUR7)", "sequence (Q8WUR7 whole entry)": "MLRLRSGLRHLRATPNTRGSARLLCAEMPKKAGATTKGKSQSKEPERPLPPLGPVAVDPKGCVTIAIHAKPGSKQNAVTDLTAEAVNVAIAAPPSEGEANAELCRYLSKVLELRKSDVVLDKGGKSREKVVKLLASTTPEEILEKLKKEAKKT", "conditions": "protein C15orf40, U3A cells"}, "[27]": {"biological_target": "proteins of U3A human fibrosarcoma cells (4462 proteins detected) (Homo sapiens, UniProt P43243)", "conditions": "protein MATR3; soluble abundance after heat, U3A cells"}, "[28]": {"biological_target": "proteins of U3A human fibrosarcoma cells (4462 proteins detected) (Homo sapiens, UniProt O75367)", "conditions": "protein H2AFY; U3A, 10 μM, 2 h"}, "[29]": {"biological_target": "proteins of U3A human fibrosarcoma cells (4462 proteins detected) (Homo sapiens, UniProt O60684)", "conditions": "protein KPNA6; U3A cells"}, "[30]": {"biological_target": "proteins of U3A human fibrosarcoma cells (4462 proteins detected) (Homo sapiens, UniProt O00422)", "conditions": "protein SAP18; soluble abundance after heat, U3A cells"}},
  "data": [
    {"compound": "CCc1nc(N)nc(N)c1-c1ccc(Cl)cc1", "note": "[pyrimethamine]", "values": [
      {"measurement": "Log2 (PYR/DMSO)", "setting": "[1]", "result": 0.23},
      {"measurement": "Log2 (PYR/DMSO)", "setting": "[2]", "result": 0.15},
      {"measurement": "Log2 (PYR/DMSO)", "setting": "[3]", "result": -0.04},
      {"measurement": "Log2 (PYR/DMSO)", "setting": "[4]", "result": 0.13},
      {"measurement": "Log2 (PYR/DMSO)", "setting": "[5]", "result": 0.16},
      {"measurement": "Log2 (PYR/DMSO)", "setting": "[6]", "result": -0.04},
      {"measurement": "Log2 (PYR/DMSO)", "setting": "[7]", "result": -0.04},
      {"measurement": "Log2 (PYR/DMSO)", "setting": "[8]", "result": -0.04},
      {"measurement": "Log2 (PYR/DMSO)", "setting": "[9]", "result": 0.18},
      {"measurement": "Log2 (PYR/DMSO)", "setting": "[10]", "result": 0.22},
      {"measurement": "Log2 (PYR/DMSO), GOLM1", "setting": "[11]", "result": -0.22},
      {"measurement": "Log2 (PYR/DMSO)", "setting": "[12]", "result": 0.21},
      {"measurement": "Log2 (PYR/DMSO), MSI2", "setting": "[13]", "result": -0.17},
      {"measurement": "Log2 (PYR/DMSO)", "setting": "[14]", "result": 0.14},
      {"measurement": "Log2 (PYR/DMSO)", "setting": "[15]", "result": 0.14},
      {"measurement": "Log2 (PYR/DMSO)", "setting": "[16]", "result": -0.04},
      {"measurement": "Log2 (PYR/DMSO)", "setting": "[17]", "result": -0.04},
      {"measurement": "Log2 (PYR/DMSO)", "setting": "[18]", "result": -0.04},
      {"measurement": "Log2 (PYR/DMSO)", "setting": "[19]", "result": 0.21},
      {"measurement": "Log2 (PYR/DMSO)", "setting": "[20]", "result": 0.17},
      {"measurement": "Log2 (PYR/DMSO), GAMT", "setting": "[21]", "result": -0.27},
      {"measurement": "Log2 (PYR/DMSO)", "setting": "[22]", "result": 0.19},
      {"measurement": "Log2 (PYR/DMSO)", "setting": "[23]", "result": 0.18},
      {"measurement": "Log2 (PYR/DMSO)", "setting": "[24]", "result": 0.18},
      {"measurement": "Log2 (PYR/DMSO)", "setting": "[25]", "result": 0.22},
      {"measurement": "Log2 (PYR/DMSO)", "setting": "[26]", "result": -0.03},
      {"measurement": "Log2 (PYR/DMSO)", "setting": "[27]", "result": 0.14},
      {"measurement": "Log2 (PYR/DMSO), H2AFY", "setting": "[28]", "result": 0.33},
      {"measurement": "Log2 (PYR/DMSO)", "setting": "[29]", "result": 0.24},
      {"measurement": "Log2 (PYR/DMSO)", "setting": "[30]", "result": 0.14}
    ]}
  ]
}
